Measurements published in US20170079278A1 (priority 2015, published 2017).

Key:
[1] = system: Coquito (Cyperus rotundus); experiment: Field trial atrazine +/- EPAC, weed control in corn; format: in vivo
Mycosphaerella fijiensis = experiment: Sensitivity test of ascospores (germination, germ tube elongation) to azoxystrobin +/- EPAC-F; format: cell-based; details: Black Sigatoka, banana crops
Protocol: In a study in experimental conditions the effectiveness of EPAC-F was evaluated by a sensitivity test to Mycosphaerella fijiensis (from a banana farm in Santa Marta), causal agent of Black Sigatoka, following the recommendations of the Fungicide Resistance Action Committee's (FRAC) to strobilurin fungicides from.
The test is based on measuring the length elongation ascospore germ tube that germinated in culture medium 2% agar, modified with a number of products made by mixing the adjuvant, EPAC-F and fungicide Liege 25 SC, whose active ingredient is Azoxystrobin 250 g/L. Then the following 11 treatments were evaluated are as follows:
T1. Azoxystrobin 25% SC 100 at a dose of 400 cc/Ha. T2. Azoxystrobin 25 SC 50% at doses of 400 cc/Ha.+EPAC 10% T3. Azoxystrobin 25 SC 50% at doses of 400 cc/Ha.+EPAC 20% T4. Azoxystrobin 25 SC 70% at doses of 400 cc/Ha.+EPAC 10% T5. Azoxystrobin 25 SC 60% at doses of 400 cc/Ha.+EPAC 10% T1A. Azoxystrobin SC 25 50% at doses of 200 cc/Ha.+EPAC5% T2A. Azoxystrobin SC 25 50% at doses of 200 cc/Ha.+10% EPAC T3A. Azoxystrobin SC 25 50% at doses of 200 cc/Ha.+15% EPAC T4A. Azoxystrobin SC 25 25% at doses of 200 cc/Ha.+10% EPAC T5A. Azoxystrobin SC 25 25% at doses of 200 cc/Ha.+15% EPAC
The control process involved the use of fungicide Amystar 50 WG with the active ingredient Azoxystrobin 500 g/L. This product is considered direct competition from […]. […]

[2] = system: Paja de Zorro (Leptochloa filiformis); experiment: Field trial butachlor +/- EPAC, weed control; format: in vivo; details: butachlor section
Coffe Borer Beetle = experiment: Field trial chlorpyrifos +/- EPAC, pest control in coffee fields; format: in vivo
[3] = system: Paja de Zorro (Leptochloa filiformis); experiment: Field trial clomazone +/- EPAC, weed control in rice fields; format: in vivo
White Fly (Aleyrodidae) [4] = experiment: Field trial cypermethrin +/- EPAC, pest control in tomato crops; format: in vivo
[5] = system: Piñita (Murdania Nudiflora); experiment: Field trial glyphosate +/- EPAC, weed control in rice; format: in vivo; details: A = chemical alone at 100%, B = reduced dose + EPAC
Leptocloa = experiment: as above; format: in vivo; details: A = 100% alone, B = reduced dose + EPAC
[6] = system: Guardarocio (Digitaria Sanguinalis); experiment: as above; format: in vivo; details: A = 100% alone, B = reduced dose + EPAC
[7] = system: Cortadera (Cortaderia Selloana); experiment: as above; format: in vivo; details: A = 100% alone, B = reduced dose + EPAC
[8] = system: Liendrepuerco (Echinochia Colonum); experiment: as above; format: in vivo; details: A = 100% alone, B = reduced dose + EPAC
[9] = system: adult T. vaporariorum; White Fly (Aleyrodidae); experiment: Methamidophos/EPAC-I on adult whitefly on tomato; format: in vivo, Trialeurodes vaporariorum; design: concentration or dose not given beside the values; details: tomato crops
Protocol: The effectiveness of EPAC-I was assessed with adult T. vaporariorum under experimental conditions taking into account the percentage of mortality by direct and indirect contact with the insects.
The completion of the performance test EPAC-I with adults of T. vaporariorum was carried out directly on whitefly adults collected from breeding individuals in the “Bio-Systems Center”. These were placed in a box with mesh which allows passage of the droplets in the spray. Product application was performed with an airbrush at a distance of 30 cm and a 45° angle on the application unit, achieving a uniform coverage with fine droplets. The quality was verified through application of a strip (2×2 cm) of water-sensitive paper.
To assemble the test, from tomato plants we selected randomly 5 leaflets per treatment and then were sprayed and once dried, in each bags mesh were placed into which 10 adults whiteflies were placed, and each of these units was duly marked according to the assessed treatment. Tomato plants with the evaluation units were maintained in a room with controlled temperature (20±1° C.), relative humidity (70±10%) and photoperiod of 12 h. The evaluation design was completely randomized and readings from day one after application to day 10 were performed.

Bledo (Amaranthus Albus) = experiment: Field trial oxadiazone +/- EPAC, weed control in rice fields; format: in vivo
Corn = experiment: Field trial paraquat +/- EPAC, crop dissecation; format: in vivo; details: A = 100% alone, B = 40% + EPAC 4%
[10] = system: Falsa Caminadora (Ischaemum rugosum); experiment: Field trial pendimethalin +/- EPAC, weed control in rice fields; format: in vivo
White Fly (Aleyrodidae) [11] = experiment: Field trial profenophos +/- EPAC, pest control in tomato crops; format: in vivo

CCNc1nc(Cl)nc(NC(C)C)n1 [Atrazine]
% of Weeds Controlled ([1]; 7 Days): 93%
% of Weeds Controlled ([1]; 14 Days): 90%
% of Weeds Controlled ([1]; 21 Days): 90%

CO/C=C(\C(=O)OC)c1ccccc1Oc1cc(Oc2ccccc2C#N)ncn1 [Axozystrobin]
Fungus Inhibition: % Ascospore Germination Inhibited (Mycosphaerella fijiensis): 24%
Fungus Inhibition: % Ascospore elongation Inhibition (>150 microm) (Mycosphaerella fijiensis): 37%

CCCCOCN(C(=O)CCl)c1c(CC)cccc1CC [Butachlor]
% of Weeds Controlled ([2]; 3 Days): 93%
% of Weeds Controlled ([2]; 8 Days): 100%
% of Weeds Controlled ([2]; 15 Days): 100%

CCOP(=S)(OCC)Oc1nc(Cl)c(Cl)cc1Cl [Chlorpyrifos]
% of Pest Controlled (Coffe Borer Beetle; 7 Days): 88%
% of Pest Controlled (Coffe Borer Beetle; 14 Days): 83%
% of Pest Controlled (Coffe Borer Beetle; 21 Days): 73%

CC1(C)CON(Cc2ccccc2Cl)C1=O [Clomazone]
% of Weeds Controlled ([3]; 3 Days): 97%
% of Weeds Controlled ([3]; 8 Days): 93%
% of Weeds Controlled ([3]; 15 Days): 100%

CC1(C)C(C=C(Cl)Cl)C1C(=O)OC(C#N)c1cccc(Oc2ccccc2)c1 (stereo not shown) [Cypermethrin]
% of Pest Controlled (White Fly (Aleyrodidae) [4]; 3 Days): 90%
% of Pest Controlled (White Fly (Aleyrodidae) [4]; 8 Days): 87%
% of Pest Controlled (White Fly (Aleyrodidae) [4]; 15 Days): 76%

O=C(O)CNCP(=O)(O)O [Glyphosate, N-phosphonomethyl-glycine]
% of Weeds Controlled [5]: 83%
% of Weeds Controlled (Leptocloa): 100%
% of Weeds Controlled [6]: 82%
% of Weeds Controlled [7]: 90%
% of Weeds Controlled [8]: 93%

COP(N)(=O)SC (stereo not shown) [Metamidhophos, O, S-dimethyl-phosphoramidothioate]
% of Pest Controlled ([9]; 1 Day): 10%
% of Pest Controlled ([9]; 4 Days): 30%
% of Pest Controlled ([9]; 6 Days): 42%
% of Pest Controlled ([9]; 8 Days): 46%
% of Pest Controlled ([9]; 10 Days): 50%

CC(C)Oc1cc(-n2nc(C(C)(C)C)oc2=O)c(Cl)cc1Cl [Oxadiazone]
% of Weeds Controlled (Bledo (Amaranthus Albus); 3 Days): 87%
% of Weeds Controlled (Bledo (Amaranthus Albus); 8 Days): 97%
% of Weeds Controlled (Bledo (Amaranthus Albus); 15 Days): 100%

C[n+]1ccc(-c2cc[n+](C)cc2)cc1 [Paraquat]
% of Crop Dissecated (Corn): 100%

CCC(CC)Nc1c([N+](=O)[O-])cc(C)c(C)c1[N+](=O)[O-] [Pendimenthaline]
% of Weeds Controlled ([10]; 3 Days): 86.7%
% of Weeds Controlled ([10]; 8 Days): 96.7%
% of Weeds Controlled ([10]; 15 Days): 93%

CCCSP(=O)(OCC)Oc1ccc(Br)cc1Cl (stereo not shown) [Profenophos]
% of Pest Controlled (White Fly (Aleyrodidae) [11]; 7 Days): 92%
% of Pest Controlled (White Fly (Aleyrodidae) [11]; 12 Days): 82%
% of Pest Controlled (White Fly (Aleyrodidae) [11]; 15 Days): 75%
